In patent US12492181B2, “Gem-disubstituted piperidine melanocortin subtype-2 receptor (MC2R) antagonists and uses thereof” (Crinetics Pharmaceuticals, Inc., priority 2019, dated 2025):

Target: T1, hMC2 receptor (crude hMC2R membranes from CRE-bla-CHO-K1 cells stably expressing hMC2 receptor and hMRAP accessory protein) (Homo sapiens, UniProt Q01718)
T1 construct: crude membrane fractions
Assay: hMC2 membrane binding assay ([125I]ACTH (1-39) Tyr23, SPA)
Conditions: displacement of 0.2 nM [125I]ACTH (1-39) Tyr23 from hMC2R membranes, 1.5 hours at room temperature; read-out: MC2R binding potency
Summary of the method: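 Crude membranes from CRE-bla-CHO-K1 cells stably co-expressing hMC2R and hMRAP, premixed with WGA PVT SPA beads in pH 7.4 HEPES buffer (5 mM MgCl2, 1 mM CaCl2, 0.20% BSA, protease inhibitors). Compounds compete with [125I]ACTH(1-39) Tyr23, read by scintillation. Ki from non-linear regression.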

T1 sequence (Q01718 whole entry): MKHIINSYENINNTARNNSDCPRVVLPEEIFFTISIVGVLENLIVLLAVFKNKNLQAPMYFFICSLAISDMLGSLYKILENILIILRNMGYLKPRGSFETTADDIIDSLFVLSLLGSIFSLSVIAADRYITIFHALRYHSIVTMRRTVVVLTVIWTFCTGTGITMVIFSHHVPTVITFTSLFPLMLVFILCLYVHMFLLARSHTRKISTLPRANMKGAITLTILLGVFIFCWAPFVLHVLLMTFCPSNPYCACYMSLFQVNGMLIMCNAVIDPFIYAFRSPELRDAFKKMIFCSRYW
T1 sequence (Q8TCY5 whole entry partner): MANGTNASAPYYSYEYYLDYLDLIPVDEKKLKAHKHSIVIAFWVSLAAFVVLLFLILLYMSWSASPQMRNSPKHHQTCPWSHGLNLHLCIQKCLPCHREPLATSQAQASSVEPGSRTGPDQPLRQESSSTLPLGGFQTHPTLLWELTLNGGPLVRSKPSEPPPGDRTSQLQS

Row | Compound | Ki [nM]
1 | CCOc1ncccc1-c1ccc(C2(C(=O)N[C@H]3CCN(C)C3)CCN(c3ccc(C(F)(F)F)cc3F)CC2)nn1 [Compound 1-193, 4-[6-(2-ethoxypyridin-3-yl)pyridazin-3-yl]-1-[2-fluoro-4-(trifluoromethyl)phenyl]-N-[(3S)-1-methylpyrrolidin-3-yl]piperidine-4-carboxamide] | < 10
2 | CCOc1ccccc1-c1ccc(C2(C(=O)NC3CN(C)C3)CCN(c3ccc(Cl)cc3C#N)CC2)nn1 [Compound 1-135, 1-(4-chloro-2-cyanophenyl)-4-[6-(2-ethoxyphenyl)pyridazin-3-yl]-N-(1-methylazetidin-3-yl)piperidine-4-carboxamide] | < 10
3 | CNC[C@H](C)NC(=O)C1(c2cnc(-c3cccn3C)c(F)c2)CCN(c2ccc(C(F)(F)F)cc2C#N)CC1 [Compound 1-326, 1-[2-cyano-4-(trifluoromethyl)phenyl]-4-[5-fluoro-6-(1-methyl-1H-pyrrol-2-yl)pyridin-3-yl]-N-[(2S)-1-(methylamino)propan-2-yl]piperidine-4-carboxamide] | < 10
4 | COc1ccccc1-c1ccc(C2(C(=O)N[C@H]3CCN(C)C3)CCN(c3ccc(C(F)(F)F)cc3C#N)CC2)cn1 [Compound 1-166, 1-[2-cyano-4-(trifluoromethyl)phenyl]-4-[6-(2-methoxyphenyl)pyridin-3-yl]-N-[(3S)-1-methylpyrrolidin-3-yl]piperidine-4-carboxamide] | < 10
5 | CN1CC[C@H](NC(=O)C2(c3ccc(-c4cccn4C)nn3)CCN(c3ccc(C(F)(F)F)cc3F)CC2)C1 [Compound 1-171, 1-[2-fluoro-4-(trifluoromethyl)phenyl]-4-[6-(1-methyl-1H-pyrrol-2-yl)pyridazin-3-yl]-N-[(3S)-1-methylpyrrolidin-3-yl]piperidine-4-carboxamide] | < 10
6 | COc1ncc(F)cc1-c1ncc(C2(C(=O)N[C@H]3CCN(C)C3)CCN(c3ccc(C(F)(F)F)cc3F)CC2)cc1F [Compound 1-210, 4-{3,5′-difluoro-2′-methoxy-[2,3′-bipyridin]-5-yl}-1-[2-fluoro-4-(trifluoromethyl)phenyl]-N-[(3S)-1-methylpyrrolidin-3-yl]piperidine-4-carboxamide] | < 10
7 | Cn1cccc1-c1ccc(C2(C(=O)N[C@H]3C[C@@H](N(C)C)C3)CCN(c3ccc(C(F)(F)F)cc3C#N)CC2)cn1 [Compound 1-239, 1-[2-cyano-4-(trifluoromethyl)phenyl]-4-[6-(1-methyl-1H-pyrrol-2-yl)pyridin-3-yl]-N-[(1S,3S)-3-(dimethylamino)cyclobutyl]piperidine-4-carboxamide] | 10 to 100
8 | CCOc1ncccc1-c1ccc(C2(C(=O)N[C@@H]3CCN(C)C3)CCN(c3ccc(C(F)(F)F)cc3C#N)CC2)cn1 [Compound 1-9, 1-[2-cyano-4-(trifluoromethyl)phenyl]-4-{2′-ethoxy-[2,3′-bipyridin]-5-yl}-N-[(3R)-1-methylpyrrolidin-3-yl]piperidine-4-carboxamide] | < 10
9 | CNCCNC(=O)C1(c2cnc(-c3cccnc3OC)c(F)c2)CCN(c2ccc(C(F)(F)F)cc2F)CC1 [Compound 1-301, 4-{3-fluoro-2′-methoxy-[2,3′-bipyridin]-5-yl}-1-[2-fluoro-4-(trifluoromethyl)phenyl]-N-[2-(methylamino)ethyl]piperidine-4-carboxamide] | < 10
10 | CCOc1ncccc1-c1cnc(C2(C(=O)N[C@@H]3CCN(C)C3)CCN(c3ccc(C(F)(F)F)cc3C#N)CC2)cn1 [Compound 1-51, 1-[2-cyano-4-(trifluoromethyl)phenyl]-4-[5-(2-ethoxypyridin-3-yl)pyrazin-2-yl]-N-[(3R)-1-methylpyrrolidin-3-yl]piperidine-4-carboxamide] | < 10
11 | CNCCNC(=O)C1(c2cnc(-c3ccccc3OC)c(F)c2)CCN(c2ccc(C(F)(F)F)cc2C#N)CC1 [Compound 1-196, 1-[2-cyano-4-(trifluoromethyl)phenyl]-4-[5-fluoro-6-(2-methoxyphenyl)pyridin-3-yl]-N-[2-(methylamino)ethyl]piperidine-4-carboxamide] | < 10
12 | CCOc1ncccc1-c1ccc(C2(C(=O)N[C@H]3CCN(C)C3)CCN(c3ccc(C(F)(F)F)cc3Cl)CC2)nn1 [Compound 1-194, 1-[2-chloro-4-(trifluoromethyl)phenyl]-4-[6-(2-ethoxypyridin-3-yl)pyridazin-3-yl]-N-[(3S)-1-methylpyrrolidin-3-yl]piperidine-4-carboxamide] | < 10
13 | COc1ccccc1-c1ncc(C2(NC(=O)O[C@@H]3CCN(C)C3)CCN(c3ccc(C(F)(F)F)cc3C#N)CC2)cc1F [Compound 2-50, (3R)-1-methylpyrrolidin-3-yl N-{1-[2-cyano-4-(trifluoromethyl)phenyl]-4-[5-fluoro-6-(2-methoxyphenyl)pyridin-3-yl]piperidin-4-yl}carbamate] | < 10
14 | CCOc1ncccc1-c1ccc(C2(NC(=O)C3CN(C)C3)CCN(c3ccc(Cl)cc3C#N)CC2)cn1 [Compound 2-37, N-[1-(4-chloro-2-cyanophenyl)-4-{2′-ethoxy-[2,3′-bipyridin]-5-yl}piperidin-4-yl]-1-methylazetidine-3-carboxamide] | < 10
15 | CCOc1ccccc1-c1ccc(C2(NC(=O)[C@@H]3CCN(C)C3)CCN(c3ccc(C(F)(F)F)cc3C#N)CC2)cn1 [Compound 2-33, (3R)—N-{1-[2-cyano-4-(trifluoromethyl)phenyl]-4-[6-(2-ethoxyphenyl)pyridin-3-yl]piperidin-4-yl}-1-methylpyrrolidine-3-carboxamide] | < 10
16 | CCOc1ncccc1-c1ccc(C2(C(=O)N[C@H]3CCN(C)C3)CCN(c3ccc(Cl)cc3C#N)CC2)cn1 [Compound 1-34, 1-(4-chloro-2-cyanophenyl)-4-{2′-ethoxy-[2,3′-bipyridin]-5-yl}-N-[(3S)-1-methylpyrrolidin-3-yl]piperidine-4-carboxamide] | < 10
17 | Cn1cccc1-c1ccc(C2(C(=O)N[C@H]3C[C@H](N(C)C)C3)CCN(c3ccc(C(F)(F)F)cc3C#N)CC2)cn1 [Compound 1-240, 1-[2-cyano-4-(trifluoromethyl)phenyl]-4-[6-(1-methyl-1H-pyrrol-2-yl)pyridin-3-yl]-N-[(1R,3R)-3-(dimethylamino)cyclobutyl]piperidine-4-carboxamide] | 10 to 100
18 | CCOc1ncccc1-c1ccc(C2(C(=O)N[C@@H]3CCN(C)C3)CCN(c3ccc(C(F)(F)F)cc3C#N)CC2)nn1 [Compound 1-57, 1-[2-cyano-4-(trifluoromethyl)phenyl]-4-[6-(2-ethoxypyridin-3-yl)pyridazin-3-yl]-N-[(3R)-1-methylpyrrolidin-3-yl]piperidine-4-carboxamide] | < 10
19 | CO[C@@H]1CN(C)C[C@H]1NC(=O)C1(c2ccc(-c3cccn3C)nc2)CCN(c2ccc(C(F)(F)F)cc2C#N)CC1 (racemic) [Compound 1-268, rac-1-[2-cyano-4-(trifluoromethyl)phenyl]-N-[(3R,4R)-4-methoxy-1-methylpyrrolidin-3-yl]-4-[6-(1-methyl-1H-pyrrol-2-yl)pyridin-3-yl]piperidine-4-carboxamide] | < 10
20 | CCOc1ccccc1-c1ccc(C2(C(=O)N[C@H]3CCN(C)C3)CCN(c3ccc(Cl)cc3C#N)CC2)nn1 [Compound 1-134, 1-(4-chloro-2-cyanophenyl)-4-[6-(2-ethoxyphenyl)pyridazin-3-yl]-N-[(3S)-1-methylpyrrolidin-3-yl]piperidine-4-carboxamide] | < 10
21 | CCOc1ncccc1-c1ccc(C2(C(=O)N[C@@H]3CCNC3)CCN(c3ccc(C(F)(F)F)cc3C#N)CC2)cn1 [Compound 1-10, 1-[2-cyano-4-(trifluoromethyl)phenyl]-4-{2′-ethoxy-[2,3′-bipyridin]-5-yl}-N-[(3R)-pyrrolidin-3-yl]piperidine-4-carboxamide] | < 10
22 | COc1ccccc1-c1ccc(C2(C(=O)N[C@@H]3CNC[C@@H]3F)CCN(c3ccc(C(F)(F)F)cc3C#N)CC2)cn1 [Compound 1-237, 1-[2-cyano-4-(trifluoromethyl)phenyl]-N-[(3R,4S)-4-fluoropyrrolidin-3-yl]-4-[6-(2-methoxyphenyl)pyridin-3-yl]piperidine-4-carboxamide] | < 10
23 | CN(C)CCNC(=O)C1(c2ccc(-c3cccn3C)nc2)CCN(c2ccc(C(F)(F)F)cc2F)CC1 [Compound 1-276, N-[2-(dimethylamino)ethyl]-1-[2-fluoro-4-(trifluoromethyl)phenyl]-4-[6-(1-methyl-1H-pyrrol-2-yl)pyridin-3-yl]piperidine-4-carboxamide] | < 10
24 | CN1CC(F)(F)C[C@H]1CNC(=O)C1(c2ccc(-c3cccn3C)nc2)CCN(c2ccc(C(F)(F)F)cc2C#N)CC1 [Compound 1-279, 1-[2-cyano-4-(trifluoromethyl)phenyl]-N-{[(2S)-4,4-difluoro-1-methylpyrrolidin-2-yl]methyl}-4-[6-(1-methyl-1H-pyrrol-2-yl)pyridin-3-yl]piperidine-4-carboxamide] | 100 to 1000
25 | CCOc1ncccc1-c1ccc(C2(NCCO)CCN(c3ccc(C(F)(F)F)cc3C#N)CC2)cn1 [Compound 2-14, 2-(4-{2′-ethoxy-[2,3′-bipyridin]-5-yl}-4-[(2-hydroxyethyl)amino]piperidin-1-yl)-5-(trifluoromethyl)benzonitrile] | 10 to 100
26 | CCOc1ccccc1-c1ncc(C2(C(=O)NCCNC)CCN(c3ccc(C(F)(F)F)cc3Cl)CC2)cc1F [Compound 1-292, 1-[2-chloro-4-(trifluoromethyl)phenyl]-4-[6-(2-ethoxyphenyl)-5-fluoropyridin-3-yl]-N-[2-(methylamino)ethyl]piperidine-4-carboxamide] | < 10
27 | COc1ccccc1-c1ncc(C2(C(=O)NCCN(C)C)CCN(c3ccc(C(F)(F)F)cc3Cl)CC2)cc1F [Compound 1-286, 1-[2-chloro-4-(trifluoromethyl)phenyl]-N-[2-(dimethylamino)ethyl]-4-[5-fluoro-6-(2-methoxyphenyl)pyridin-3-yl]piperidine-4-carboxamide] | < 10
